The source of these data is US20260001893A1, “SMALL MOLECULE MODULATORS OF STAT6” (Gilead Sciences, Inc., priority 2024, published 2026).

Each structure is given as a SMILES string.

For this assay, the system named is Eotaxin-3 (CCL26) release in human whole blood stimulated with IL-4. As to the kind of experiment: Human whole blood eotaxin-3 assay (IL-4 stimulated eotaxin-3 release). It is filed as cell-based. Conditions: Homo sapiens, 48 h, human whole blood stimulated with recombinant human IL-4, 48 h, geometric mean; for EC50: inhibition of eotaxin-3 release, given for test compounds with >80% Emax; for Emax: given for test compounds with <80% Emax. The method in brief: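 Eotaxin-3 (CCL26) release was quantified by MSD immunoassay in supernatants of human heparinised whole blood after 48 h at 37° C with IL-4 ([…] final). Compounds, in 4-fold dilutions at 0.5% DMSO, were added 2 h before stimulation.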

For the compound `[2H]C([2H])([2H])N(C(=O)c1cc(C)c(C2=CCN(Cc3cc4c(-n5ccc6c(c5=O)CCN6)ccnc4n3C)CC2)c(F)c1)C([2H])([2H])[2H]` [Example 1ad7, 3-Fluoro-5-methyl-N,N-bis(methyl-d3)-4-(1-((1-methyl-4-(4-oxo-1,2,3,4-tetrahydro-5H-pyrrolo[3,2-c]pyridin-5-yl)-1H-pyrrolo[2,3-b]pyridin-2-yl)methyl)-1,2,3,6-tetrahydropyridin-4-yl)benzamide], the EC50 came out at 6.8 nM.

For `[2H]C([2H])([2H])N(C(=O)c1cc(F)c(C2=CCN(Cc3cc4c(-n5ccc6c(c5=O)CCN6)ccnc4n3C)CC2)c(F)c1)C([2H])([2H])[2H]` [Example 1m115, 3,5-difluoro-N,N-bis(methyl-d3)-4-(1-((1-methyl-4-(4-oxo-1,2,3,4-tetrahydro-5H-pyrrolo[3,2-c]pyridin-5-yl)-1H-pyrrolo[2,3-b]pyridin-2-yl)methyl)-1,2,3,6-tetrahydropyridin-4-yl)benzamide], the EC50 was 20.4 nM.

In the case of `CNc1cc(=O)n(-c2ccnc3c2cc([C@H](C)N2CC=C(c4c(C)cc(C(=O)N(C)C)cc4F)CC2)n3C)cc1F` [Example 1m124, (S)-3-fluoro-4-(1-(1-(4-(5-fluoro-4-(methylamino)-2-oxopyridin-1 (2H)-yl)-1-methyl-1H-pyrrolo[2,3-b]pyridin-2-yl)ethyl)-1,2,3,6-tetrahydropyridin-4-yl)-N,N,5-trimethylbenzamide], the EC50 was 7.6 nM.

For the compound `[2H]C([2H])([2H])N(C(=O)c1ccc(C2=CCN(Cc3cc4c(-n5ccc6c(c5=O)CCN6)ccnc4n3C)CC2)cc1)C([2H])([2H])[2H]` [Example 1af63, N,N-Bis(methyl-d3)-4-(1-((1-methyl-4-(4-oxo-1,2,3,4-tetrahydro-5H-pyrrolo[3,2-c]pyridin-5-yl)-1H-pyrrolo[2,3-b]pyridin-2-yl)methyl)-1,2,3,6-tetrahydropyridin-4-yl)benzamide], the Emax was in the range of 30 to 40%.

For `[2H]C([2H])([2H])N(C(=O)c1ccc(C2CCN([C@@H](C)c3cc4c(-n5ccc6[nH]ncc6c5=O)ccnc4n3C)CC2)cc1)C([2H])([2H])[2H]` [Example 1m89, (S)—N,N-bis(methyl-d3)-4-(1-(1-(1-methyl-4-(4-oxo-1,4-dihydro-5H-pyrazolo[4,3-c]pyridin-5-yl)-1H-pyrrolo[2,3-b]pyridin-2-yl)ethyl)piperidin-4-yl)benzamide], the EC50 was 5.87 nM.

Take `[2H]C([2H])([2H])N(C(=O)c1ccc(C2CCN([C@@H](C)c3cc4c(-n5ccc(N)cc5=O)ccnc4n3C)CC2)cc1)C([2H])([2H])[2H]` [Example 1af65, (S)-4-(1-(1-(4-(4-amino-2-oxopyridin-1 (2H)-yl)-1-methyl-1H-pyrrolo[2,3-b]pyridin-2-yl)ethyl)piperidin-4-yl)-N,N-bis(methyl-d3)benzamide]: the EC50 is 19.6 nM.

In the case of `CNc1nc(=O)n(-c2ccnc3c2cc(CN2CCC(c4c(F)cc(C(=O)N(C)C)cc4F)CC2)n3C)cc1F` [Example 1m118, 3,5-difluoro-4-(1-((4-(5-fluoro-4-(methylamino)-2-oxopyrimidin-1 (2H)-yl)-1-methyl-1H-pyrrolo[2,3-b]pyridin-2-yl)methyl)piperidin-4-yl)-N,N-dimethylbenzamide], the EC50 is 55.2 nM.

Turning to `CN(C)C(=O)c1cc(F)c(C2=CCN(Cc3cc4c(-n5ccc6c(c5=O)CCN6)ccnc4n3C)CC2)cc1C1CC1` (single isomer, unassigned) [Example 1m134, 2-cyclopropyl-5-fluoro-N,N-dimethyl-4-(1-((1-methyl-4-(4-oxo-1,2,3,4-tetrahydro-5H-pyrrolo[3,2-c]pyridin-5-yl)-1H-pyrrolo[2,3-b]pyridin-2-yl)methyl)-1,2,3,6-tetrahydropyridin-4-yl)benzamide], the EC50 stood at 2900 nM.

For `[2H]C([2H])([2H])N(C(=O)c1ccc(C2CCN(Cc3cc4c(-n5ccc(N)c(C)c5=O)ccnc4n3C)CC2)cc1)C([2H])([2H])[2H]` [Example 1d22, 4-[1-[[4-(4-Amino-3-methyl-2-oxo-1-pyridyl)-1-methyl-pyrrolo[2,3-b]pyridin-2-yl]methyl]-4-piperidyl]-N,N-bis(trideuteriomethyl)benzamide], the Emax lay in the range of 70 to 80%.

Regarding `[2H]C([2H])([2H])N(C(=O)c1cc(C)c(C2=CCN([C@@H](C)c3cc4c(-n5ccc6c(c5=O)CCN6)ccnc4n3C)CC2)c(F)c1)C([2H])([2H])[2H]` [Example 1m128, (S)-3-fluoro-5-methyl-N,N-bis(methyl-d3)-4-(1-(1-(1-methyl-4-(4-oxo-1,2,3,4-tetrahydro-5H-pyrrolo[3,2-c]pyridin-5-yl)-1H-pyrrolo[2,3-b]pyridin-2-yl)ethyl)-1,2,3,6-tetrahydropyridin-4-yl)benzamide], the EC50 turned out to be 3.42 nM.

Consider `Cc1cc(C(=O)N(C)C)ccc1C1=CCN(Cc2cc3c(-n4ncc(N)cc4=O)ccnc3n2C)CC1` [Example 1ab5, 4-(1-((4-(4-Amino-6-oxopyridazin-1 (6H)-yl)-1-methyl-1H-pyrrolo[2,3-b]pyridin-2-yl)methyl)-1,2,3,6-tetrahydropyridin-4-yl)-N,N,3-trimethylbenzamide], for which the EC50 was 1530 nM.

With `[2H]C([2H])([2H])N(C(=O)c1ccc(C2CCN([C@@H](C)c3cc4c(-n5ccc6[nH]nc(C(F)(F)F)c6c5=O)ccnc4n3C)CC2)cc1)C([2H])([2H])[2H]` [Example 1m147, (S)—N,N-bis(methyl-d3)-4-(1-(1-(1-methyl-4-(4-oxo-3-(trifluoromethyl)-1,4-dihydro-5H-pyrazolo[4,3-c]pyridin-5-yl)-1H-pyrrolo[2,3-b]pyridin-2-yl)ethyl)piperidin-4-yl)benzamide], the EC50 came out at 60.1 nM.

Take `[2H]C([2H])([2H])N(C(=O)c1ccc(C2CCN([C@@H](C)c3cc4c(-n5cc(F)c(N)nc5=O)ccnc4n3C)CC2)cc1)C([2H])([2H])[2H]` [Example 1m80, (S)-4-(1-(1-(4-(4-amino-5-fluoro-2-oxopyrimidin-1 (2H)-yl)-1-methyl-1H-pyrrolo[2,3-b]pyridin-2-yl)ethyl)piperidin-4-yl)-N,N-bis(methyl-d3)benzamide]: the EC50 is 133 nM.

In the case of `CNc1ccn(-c2ccnc3c2cc([C@H](C)N2CC=C(c4c(C)cc(C(=O)N(C)C)cc4F)CC2)n3C)c(=O)c1OC` [Example 1m138, (S)-3-fluoro-4-(1-(1-(4-(3-methoxy-4-(methylamino)-2-oxopyridin-1 (2H)-yl)-1-methyl-1H-pyrrolo[2,3-b]pyridin-2-yl)ethyl)-1,2,3,6-tetrahydropyridin-4-yl)-N,N,5-trimethylbenzamide], the EC50 turned out to be 229 nM.

With `CN(C)C(=O)c1cc(F)c(C2CCN(Cc3cc4c(-n5cc(F)c6c(c5=O)CCN6)ccnc4n3C)CC2)c(F)c1` [Example 1m133, 3,5-difluoro-4-(1-((4-(7-fluoro-4-oxo-1,2,3,4-tetrahydro-5H-pyrrolo[3,2-c]pyridin-5-yl)-1-methyl-1H-pyrrolo[2,3-b]pyridin-2-yl)methyl)piperidin-4-yl)-N,N-dimethylbenzamide], the EC50 was found to be 75.2 nM.

In the case of `CNc1ccn(-c2ccnc3c2cc([C@@H](C)N2CC[C@H](c4c(C)cc(C(=O)N(C)C)cc4F)C(F)(F)C2)n3C)c(=O)c1` (single isomer, unassigned) [Example 1m144], the EC50 is 2170 nM.

Take `Cc1cc(C(=O)N(C)C)cc(F)c1C1=CCN([C@@H](C)c2cc3c(-n4cc(F)c(N)cc4=O)ccnc3n2C)CC1` [Example 1m111, (S)-4-(1-(1-(4-(4-amino-5-fluoro-2-oxopyridin-1 (2H)-yl)-1-methyl-1H-pyrrolo[2,3-b]pyridin-2-yl)ethyl)-1,2,3,6-tetrahydropyridin-4-yl)-3-fluoro-N,N,5-trimethylbenzamide]: the EC50 worked out at 6.98 nM.

Turning to `[2H]C([2H])([2H])N(C(=O)c1cc(C)c(C2=CCN(Cc3cc4c(-n5cc(F)c(N)cc5=O)ccnc4n3C)CC2)c(F)c1)C([2H])([2H])[2H]` [Example 1ad11, 4-(1-((4-(4-amino-5-fluoro-2-oxopyridin-1 (2H)-yl)-1-methyl-1H-pyrrolo[2,3-b]pyridin-2-yl)methyl)-1,2,3,6-tetrahydropyridin-4-yl)-3-fluoro-5-methyl-N,N-bis(methyl-d3)benzamide], the EC50 turned out to be 11.3 nM.

Consider `[2H]C([2H])([2H])N(C(=O)c1cc(F)c(C2=CCN(Cc3cc4c(-n5ccc(NC)cc5=O)ccnc4n3C)CC2)c(F)c1)C([2H])([2H])[2H]` [Example 1m98, 3,5-difluoro-N,N-bis(methyl-d3)-4-(1-((1-methyl-4-(4-(methylamino)-2-oxopyridin-1 (2H)-yl)-1H-pyrrolo[2,3-b]pyridin-2-yl)methyl)-1,2,3,6-tetrahydropyridin-4-yl)benzamide], for which the EC50 came to 22.4 nM.

Consider `CNc1nc(=O)n(-c2ccnc3c2cc([C@H](C)N2CC=C(c4c(C)cc(C(=O)N(C)C)cc4F)CC2)n3C)cc1F` [Example 1m129, (S)-3-fluoro-4-(1-(1-(4-(5-fluoro-4-(methylamino)-2-oxopyrimidin-1 (2H)-yl)-1-methyl-1H-pyrrolo[2,3-b]pyridin-2-yl)ethyl)-1,2,3,6-tetrahydropyridin-4-yl)-N,N,5-trimethylbenzamide], for which the EC50 is 4.09 nM.

As for `CNc1ccn(-c2ccnc3c2cc([C@H](C)N2CC=C(c4c(C)cc(C(=O)N(C)C)nc4C)CC2)n3C)c(=O)c1` (single isomer, unassigned) [Example 1m99], the maximal response (Emax) is under 20%.

Take `CNc1ccn(-c2ccnc3c2cc(CN2CC[C@@H](c4ccc(C(=O)N(C)C)cc4)C[C@@H]2C)n3C)c(=O)c1` (single isomer, unassigned) [Example 1d40]: the Emax is under 20%.

Turning to `CNc1ccn(-c2ccnc3c2cc(CN2CC=C(c4c(C)cc(C(=O)N(C)C)cc4F)CC2)n3C)c(=O)c1` [Example 1m56, 3-Fluoro-N,N,5-trimethyl-4-(1-((1-methyl-4-(4-(methylamino)-2-oxopyridin-1 (2H)-yl)-1H-pyrrolo[2,3-b]pyridin-2-yl)methyl)-1,2,3,6-tetrahydropyridin-4-yl)benzamide], the EC50 turned out to be 3.64 nM.
